Results from US9149043B2, “Compositions and method for preventing and treating fire blight” (priority 2009, dated 2015).
Values joined by “and” are separate entries in the source; they are usually repeats but may differ in a detail not shown here. Identical values can stand only once.

Test system: Erwinia amylovara
Assay: Measuring the efficiency against fire blight on inoculated apple blossoms
Assay type: in vivo
Settings: 0.06 % by weight in water (positive control); apple blossoms sprayed 1 h after inoculation, 6 days, vs water control
Experimental: For measuring the efficiency of the aqueous compositions, 24 blossoms of the apple varieties Braeburn, Jona Gold and Gala are placed in sugar solution and inoculated with a suspension of Erwinia amylovara at 10^6 bacterial cells. One hour after inoculation, the blossoms are sprayed, respectively, with the composition to be tested or with water, serving as a negative control, until completely wetted. These blossoms are incubated for 6 days at 20 to 23° C. and at a relative humidity of 100%.
The efficiency specifies the decrease of infested blossoms utilizing the composition to be tested in comparison to blossoms, which were treated with water only. All tests are conducted three to six times, and from the measured data the empirical mean of the efficiency, as well as the empirical standard deviation σ are calculated, whereby the standard deviation σ represents […] of the data from the arithmetic mean of the efficiency.

## [H]/N=C(/N)N[C@H]1[C@H](O)[C@@H](O)[C@H](O[C@@H]2O[C@@H](C)[C@](O)(C=O)[C@H]2O[C@@H]2O[C@@H](CO)[C@H](O)[C@@H](O)[C@@H]2NC)[C@@H](N/C(N)=N\[H])[C@@H]1O [streptomycin]
  mean of efficiency: 74% and 70% and 75%
